From US20170268027A1, “METHOD FOR SYNTHESIS OF FATTY ACIDS” (priority 2014, published 2017)
Where two headings read alike, the source gives them in different places.

How the values were obtained:
[1] = test system: Y. lipolytica; assay: preliminary dose studies of cerulenin on growth of Y. lipolytica; type: cell-based, Yarrowia lipolytica; details: doses tested 1 to 25 mgcerulenin·gx^−1
[2] = test system: Yarrowia lipolytica W29; assay: Culture B: fed-batch culture of Y. lipolytica W29 under nitrogen limitation with cerulenin pulse (growth, fatty acid profile); type: cell-based; set-up: Length of the carbon chain: unit not given here
[3] = test system: Candida lypolytica; details: cited from earlier work
[4] = test system: Yarrowia lipolytica JMY3501; assay: Culture D: fed-batch culture of Y. lipolytica JMY3501 with cerulenin pulse (fatty acid profile); type: cell-based
[5] = between injection and 3 h after injection
[6] = −2 h (before the pulse, baseline)

For C/C=C/C/C=C/CCC(=O)[C@H]1O[C@H]1C(N)=O [cerulenin], the “dose that completely inhibits growth” value [1] was 15 mgcerulenin·gx^−1, the Degree of unsaturation ([2]; 0 h (time of the pulse)) was 0.95 and the “Length of the carbon chain” value ([2]; 0 h (time of the pulse)) was 16.98. For the same compound, the “time of appearance of short-chain fatty acids after the pulse” value ([2]; 7 mgcerulenin·gx^−1) was 15 min, the “culture time after which the effect of partial inhibition of elongation kinetics disappeared” value ([2]; 7 mgcerulenin·gx^−1 pulse) was 9 h and the “increase of mass content of palmitic acid (C16:0) relative to before the pulse” value ([2]; 3 h after pulse) was 0.014 gAG·gx^−1. The “increase of mass content of palmitoleic acid (C16:1) relative to before the pulse” value ([2]; 3 h after pulse) was 0.023 gAG·gx^−1, the Degree of unsaturation ([2]; +15 min. after the pulse) was 0.92 and the “Length of the carbon chain” value ([2]; +15 min. after the pulse) was 16.83. The Degree of unsaturation ([2]; +1 h after the pulse) was 0.73, the “Length of the carbon chain” value ([2]; +1 h after the pulse) was 16.3 and the Degree of unsaturation ([2]; +3 h after the pulse) was 0.75. For the same compound, the “Length of the carbon chain” value ([2]; +3 h after the pulse) was 15.3, the “accumulation of short-chain fatty acids” value ([2]; after 3 h of culture after the pulse of 7 mgcerulenin·gx^−1) was 24.5% and the “mass fraction of the fatty acid C18:3” value ([2]; after the pulse) was 6%. For the same compound, the “mass fraction F4,8 multiplied by” value ([2]; at 3 h) was 70, the “mass fraction F9,12 multiplied by” value ([2]; at 3 h) was 28 and the “mass fraction F13,15 multiplied by” value ([2]; at 3 h) was 15. The “factor of multiplication of the specific rate of synthesis of short-chain or medium-chain fatty acid” value ([2]; before vs 3 h after the pulse) was 14, the “average degree of unsaturation of neo-synthesised fatty acids” value [2, 5] was 0.6 and the “average number of carbon atoms of neo-synthesised fatty acids” value [2, 5] was 12.74 carbon atoms. For the same compound, the “effect on the growth dynamic of the yeast” value ([2]; dose 7 μgcerulenin·mgx^−1, nitrogen limitation) was “no effect”, the “total fatty acids accumulated” value ([2]; during the 10 h following the cerulenin pulse) was 3% and the “variation of the growth rate” value ([2]; during the 10 h following the first injection, 7 mgcerulenin·gx^−1) was “less than 5%”. For the same compound, the “specific speed of production of fatty acid” value ([2]; following the addition of cerulenin (0.004 before)) was 0.0017 gAG·gx·h^−1, the “variation of mass content of fatty acids C4:0-C8:0 relative to before the pulse” value ([2]; in 3 h) was 0.05 gAG·gx^−1 and the “variation of mass content of fatty acids C9:0-C12:0 relative to before the pulse” value ([2]; in 3 h) was 0.07 gAG·gx^−1. The “variation of mass content of fatty acids C13:0-C15:0 relative to before the pulse” value ([2]; in 3 h) was 0.07 gAG·gx^−1, the Degree of unsaturation [2, 6] was 0.97 and the “Length of the carbon chain” value [2, 6] was 16.97. For the same compound, the effect on growth ([3]; substrate containing n-tetradecane to n-octadecane) was “without exerting any effect”, the effect on growth ([3]; substrate containing n-undecane or n-dodecane) was “completely blocks the growth” and the “effect on accumulation of short-chain fatty acids” value ([4]; 0.25 mgcerulenin·gx^−1, lipid accumulation phase) was “increase the accumulation of short-chain fatty acids”. The “C12 content in the fatty acid composition” value ([4]; after pulse of 0.25 mgcerulenin·gx^−1 (4% before)) was 7% and the “C14 content in the fatty acid composition” value ([4]; after pulse of 0.25 mgcerulenin·gx^−1 (7% before)) was 14%.
